Measurements as given in US20230256108A1, “A DRUG CONJUGATE AND APPLICATIONS THEREOF” (GENEQUANTUM HEALTHCARE (SUZHOU) CO., LTD., priority 2019, published 2023).
Where two headings read alike, the source gives them in different places. Non-standard residues stand in square brackets, D forms with d. Residues, ends and D or L forms follow the SMILES beside them. *: point of attachment. Dolaproine = CO[C@@H]([C@@H]1CCCN1)[C@@H](C)C(=O)O; Hexanoyl(6-maleimido) = O=C1C=CC(=O)N1CCCCCC(=O)*; Dil = CC[C@H](C)[C@H](NC)[C@@H](CC(=O)O)OC; NMeV = CN[C@H](C(=O)O)C(C)C

How the values were obtained:
[1] = tested on: HCC1954; assay: Cytotoxicity, HER2 high-expressing cancer cells; type: cell-based, human
[2] = tested on: BT-474; assay: Cytotoxicity, HER2 high-expressing cancer cells; type: cell-based
[3] = tested on: NCI-N87; assay: Cytotoxicity, HER2 high-expressing cancer cells; type: cell-based, human
[4] = tested on: SK-BR-3; assay: Cytotoxicity, HER2 high-expressing cancer cells; type: cell-based, human
[5] = tested on: MDA-MB-231; assay: Cytotoxicity, HER2 low-expressing or HER2-negative cells; type: cell-based; conditions: Homo sapiens
Procedure: (§1) Cytotoxicity experiments were performed using human breast cancer cells MDA-MB-231, MDA-MB-468, which are HER2 low-expressing or HER2-negative.

[6] = tested on: MDA-MB-468; assay: as above; type: cell-based; conditions: Homo sapiens
Procedure: as §1

| Structure (SMILES) | IC50 [1] [nM] | IC50 [2] [nM] | IC50 [3] [nM] | IC50 [4] [nM] | IC50 ([1]; Homo sapiens, HCC1954) [nM] | IC50 [5] [nM] | IC50 [6] [nM] | IC50 ([2]; Homo sapiens, BT-474) [nM] | IC50 ([3]; Homo sapiens, NCI-N87) [nM] | IC50 ([4]; Homo sapiens, SK-BR-3) [nM] |
| --- | --- | --- | --- | --- | --- | --- | --- | --- | --- | --- |
| COc1cc2cc(c1Cl)N(C)C(=O)C[C@H](OC(=O)[C@H](C)N(C)C(=O)CCS)[C@]1(C)O[C@H]1[C@H](C)[C@@H]1C[C@@](O)(NC(=O)O1)[C@H](OC)/C=C/C=C(\C)C2 [DM1] | 2.67 | 6.24 | 6.97 | 1.92 |  |  |  |  |  |  |
| CC[C@H](C)[C@@H]([C@@H](CC(=O)N1CCC[C@H]1[C@H](OC)[C@@H](C)C(=O)N[C@@H](Cc1ccccc1)C(=O)O)OC)N(C)C(=O)[C@@H](NC(=O)[C@@H](NC)C(C)C)C(C)C [MMAF, monomethyl auristatin F] (H-[NMeV]V[Dil][Dolaproine]F-OH) | 39.6 | 44.7 | 41.4 | 54.3 |  |  |  |  |  |  |
| CC[C@H](C)[C@@H]([C@@H](CC(=O)N1CCC[C@H]1[C@H](OC)[C@@H](C)C(=O)N[C@@H](Cc1ccccc1)C(=O)O)OC)N(C)C(=O)[C@@H](NC(=O)[C@H](C(C)C)N(C)C(=O)CCCCCN1C(=O)C=CC1=O)C(C)C [mc-MMAF] ({Hexanoyl(6-maleimido)}-[NMeV]V[Dil][Dolaproine]F-OH) | 116 | 56.1 | 208 | 98.6 |  |  |  |  |  |  |
| CC[C@H](C)[C@@H]([C@@H](CC(=O)N1CCC[C@H]1[C@H](OC)[C@@H](C)C(=O)N[C@@H](Cc1ccccc1)C(=O)O)OC)N(C)C(=O)[C@H](NC(=O)[C@H](C(C)C)N(C)C(=O)CCCCCN1C(=O)CC(SCC(NC(=O)CCOCCOCCOCCOCCNC(=O)CNC(=O)CNC(=O)CN)C(N)=O)C1=O)C(C)C (stereo partly drawn) [IM102 (ring closed)] |  |  |  |  | 160 | 1710 | 1080 | 267 | 690 | 383 |
